These results are taken from patent US20030139361A1, “Drug for gene therapy” (priority 2000, published 2003).

The assay relates to spleen cells derived from PVG rat and mitomycin-treated DA rat. Description: Lymphocyte mixed culture test (BrdU incorporation). Format: cell-based. As to conditions: 4 days culture, BrdU 10 μM for last 16 hours; FIG. 2. As for the experimental part: To study the immunosuppressive activity of the human IDO protein prepared in Example 10, a lymphocyte mixed culture test was carried out. The spleen cells derived from a non-treated PVG rat and the spleen cells derived from a DA rat treated with 25 μg/ml of mitomycin (SIGMA-Aldrich Corporation) were seeded on a U bottom 96-well plate (NUNC Inc.) at 5×10^4/well and at 8×10^6/well, respectively. The IDO protein was then added and culturing was done for 4 days. Sixteen hours before the finish of culturing 5-bromo-2′deoxyuridine (BrdU) was added at a final concentration of 10 μM. The amount of BrdU incorporated into the intracellular DNA was quantified using a BrdU Labeling & Detection Kit III (Roche Diagnostics Inc.).
(In general: Dividing cells build labelled thymidine or BrdU into new DNA.)

On to “human IDO protein: Recombinant human indoleamine 2,3-dioxygenase protein prepared in Example 10 from E. coli”, for which the “immunosuppressive activity (amount of BrdU incorporated into intracellular DNA)” value is on record as “showed the immunosuppressive activity in a concentration-dependent manner”.
